Numbers after ± are expanded uncertainties.
Test: xn = mol fraction of the nth substance listed
Conditions: 100 kPa, Liquid; for speed of sound: Frequency=3 MHz, Linear variable-path acoustic interferometer; for mass density: Pycnometric method

## C=C(C)C(=O)OCCCC [butyl 2-methyl-2-propenoate] + N#Cc1ccccc1
293.15 K, x2 = 0
  speed of sound: 1241.7 ± 1.7 m/s
  mass density: 895.19 ± 1 kg/m3
293.15 K, x2 = 0.0721
  speed of sound: 1251.2 ± 1.7 m/s
  mass density: 900.73 ± 1 kg/m3
293.15 K, x2 = 0.1507
  speed of sound: 1262 ± 1.7 m/s
  mass density: 907.02 ± 1 kg/m3
293.15 K, x2 = 0.2142
  speed of sound: 1271.2 ± 1.7 m/s
  mass density: 912.32 ± 1 kg/m3
293.15 K, x2 = 0.2876
  speed of sound: 1282.1 ± 1.7 m/s
  mass density: 918.72 ± 1 kg/m3
293.15 K, x2 = 0.3511
  speed of sound: 1291.9 ± 1.7 m/s
  mass density: 924.51 ± 1 kg/m3
293.15 K, x2 = 0.4297
  speed of sound: 1304.6 ± 1.7 m/s
  mass density: 932.05 ± 1 kg/m3
293.15 K, x2 = 0.4985
  speed of sound: 1316.5 ± 1.7 m/s
  mass density: 939.01 ± 1 kg/m3
293.15 K, x2 = 0.5715
  speed of sound: 1330 ± 1.7 m/s
  mass density: 946.81 ± 1 kg/m3
293.15 K, x2 = 0.6465
  speed of sound: 1344.9 ± 1.7 m/s
  mass density: 955.32 ± 1 kg/m3
293.15 K, x2 = 0.7147
  speed of sound: 1359.7 ± 1.7 m/s
  mass density: 963.54 ± 1 kg/m3
293.15 K, x2 = 0.7784
  speed of sound: 1374.6 ± 1.7 m/s
  mass density: 971.67 ± 1 kg/m3
293.15 K, x2 = 0.8558
  speed of sound: 1394.4 ± 1.7 m/s
  mass density: 982.2 ± 1 kg/m3
293.15 K, x2 = 0.9326
  speed of sound: 1416.2 ± 1.7 m/s
  mass density: 993.43 ± 1 kg/m3
298.15 K, x2 = 0
  speed of sound: 1222.1 ± 1.7 m/s
  mass density: 890.48 ± 1 kg/m3
298.15 K, x2 = 0.0721
  speed of sound: 1231.8 ± 1.7 m/s
  mass density: 896.08 ± 1 kg/m3
298.15 K, x2 = 0.1507
  speed of sound: 1242.8 ± 1.7 m/s
  mass density: 902.44 ± 1 kg/m3
298.15 K, x2 = 0.2142
  speed of sound: 1252 ± 1.7 m/s
  mass density: 907.79 ± 1 kg/m3
298.15 K, x2 = 0.2876
  speed of sound: 1262.8 ± 1.7 m/s
  mass density: 914.25 ± 1 kg/m3
298.15 K, x2 = 0.3511
  speed of sound: 1272.6 ± 1.7 m/s
  mass density: 920.1 ± 1 kg/m3
298.15 K, x2 = 0.4297
  speed of sound: 1285.3 ± 1.7 m/s
  mass density: 927.7 ± 1 kg/m3
298.15 K, x2 = 0.4985
  speed of sound: 1297.1 ± 1.7 m/s
  mass density: 934.73 ± 1 kg/m3
298.15 K, x2 = 0.5715
  speed of sound: 1310.6 ± 1.7 m/s
  mass density: 942.6 ± 1 kg/m3
298.15 K, x2 = 0.6465
  speed of sound: 1325.7 ± 1.7 m/s
  mass density: 951.19 ± 1 kg/m3
298.15 K, x2 = 0.7147
  speed of sound: 1340.5 ± 1.7 m/s
  mass density: 959.49 ± 1 kg/m3
298.15 K, x2 = 0.7784
  speed of sound: 1355.6 ± 1.7 m/s
  mass density: 967.7 ± 1 kg/m3
298.15 K, x2 = 0.8558
  speed of sound: 1375.6 ± 1.7 m/s
  mass density: 978.33 ± 1 kg/m3
298.15 K, x2 = 0.9326
  speed of sound: 1397.6 ± 1.7 m/s
  mass density: 989.66 ± 1 kg/m3
303.15 K, x2 = 0
  speed of sound: 1202.4 ± 1.7 m/s
  mass density: 885.78 ± 1 kg/m3
303.15 K, x2 = 0.0721
  speed of sound: 1212.4 ± 1.7 m/s
  mass density: 891.44 ± 1 kg/m3
303.15 K, x2 = 0.1507
  speed of sound: 1223.6 ± 1.7 m/s
  mass density: 897.86 ± 1 kg/m3
303.15 K, x2 = 0.2142
  speed of sound: 1232.8 ± 1.7 m/s
  mass density: 903.26 ± 1 kg/m3
303.15 K, x2 = 0.2876
  speed of sound: 1243.7 ± 1.7 m/s
  mass density: 909.78 ± 1 kg/m3
303.15 K, x2 = 0.3511
  speed of sound: 1253.4 ± 1.7 m/s
  mass density: 915.69 ± 1 kg/m3
303.15 K, x2 = 0.4297
  speed of sound: 1266.3 ± 1.7 m/s
  mass density: 923.35 ± 1 kg/m3
303.15 K, x2 = 0.4985
  speed of sound: 1278.1 ± 1.7 m/s
  mass density: 930.45 ± 1 kg/m3
303.15 K, x2 = 0.5715
  speed of sound: 1291.6 ± 1.7 m/s
  mass density: 938.39 ± 1 kg/m3
303.15 K, x2 = 0.6465
  speed of sound: 1306.8 ± 1.7 m/s
  mass density: 947.06 ± 1 kg/m3
303.15 K, x2 = 0.7147
  speed of sound: 1321.9 ± 1.7 m/s
  mass density: 955.44 ± 1 kg/m3
303.15 K, x2 = 0.7784
  speed of sound: 1337.2 ± 1.7 m/s
  mass density: 963.73 ± 1 kg/m3
303.15 K, x2 = 0.8558
  speed of sound: 1357.7 ± 1.7 m/s
  mass density: 974.46 ± 1 kg/m3
303.15 K, x2 = 0.9326
  speed of sound: 1379.9 ± 1.7 m/s
  mass density: 985.89 ± 1 kg/m3
308.15 K, x2 = 0
  speed of sound: 1183 ± 1.7 m/s
  mass density: 881.07 ± 1 kg/m3
308.15 K, x2 = 0.0721
  speed of sound: 1193.2 ± 1.7 m/s
  mass density: 886.79 ± 1 kg/m3
308.15 K, x2 = 0.1507
  speed of sound: 1204.6 ± 1.7 m/s
  mass density: 893.27 ± 1 kg/m3
308.15 K, x2 = 0.2142
  speed of sound: 1213.9 ± 1.7 m/s
  mass density: 898.72 ± 1 kg/m3
308.15 K, x2 = 0.2876
  speed of sound: 1225 ± 1.7 m/s
  mass density: 905.3 ± 1 kg/m3
308.15 K, x2 = 0.3511
  speed of sound: 1234.8 ± 1.7 m/s
  mass density: 911.26 ± 1 kg/m3
308.15 K, x2 = 0.4297
  speed of sound: 1247.7 ± 1.7 m/s
  mass density: 919 ± 1 kg/m3
308.15 K, x2 = 0.4985
  speed of sound: 1259.6 ± 1.7 m/s
  mass density: 926.16 ± 1 kg/m3
308.15 K, x2 = 0.5715
  speed of sound: 1273.2 ± 1.7 m/s
  mass density: 934.18 ± 1 kg/m3
308.15 K, x2 = 0.6465
  speed of sound: 1288.5 ± 1.7 m/s
  mass density: 942.93 ± 1 kg/m3
308.15 K, x2 = 0.7147
  speed of sound: 1303.8 ± 1.7 m/s
  mass density: 951.39 ± 1 kg/m3
308.15 K, x2 = 0.7784
  speed of sound: 1319.5 ± 1.7 m/s
  mass density: 959.75 ± 1 kg/m3
308.15 K, x2 = 0.8558
  speed of sound: 1340.4 ± 1.7 m/s
  mass density: 970.58 ± 1 kg/m3
308.15 K, x2 = 0.9326
  speed of sound: 1362.9 ± 1.7 m/s
  mass density: 982.12 ± 1 kg/m3
313.15 K, x2 = 0
  speed of sound: 1163.8 ± 1.7 m/s
  mass density: 876.35 ± 1 kg/m3
313.15 K, x2 = 0.0721
  speed of sound: 1174.3 ± 1.7 m/s
  mass density: 882.13 ± 1 kg/m3
313.15 K, x2 = 0.1507
  speed of sound: 1185.8 ± 1.7 m/s
  mass density: 888.68 ± 1 kg/m3
313.15 K, x2 = 0.2142
  speed of sound: 1195.3 ± 1.7 m/s
  mass density: 894.18 ± 1 kg/m3
313.15 K, x2 = 0.2876
  speed of sound: 1206.5 ± 1.7 m/s
  mass density: 900.82 ± 1 kg/m3
313.15 K, x2 = 0.3511
  speed of sound: 1216.5 ± 1.7 m/s
  mass density: 906.83 ± 1 kg/m3
313.15 K, x2 = 0.4297
  speed of sound: 1229.5 ± 1.7 m/s
  mass density: 914.65 ± 1 kg/m3
313.15 K, x2 = 0.4985
  speed of sound: 1241.5 ± 1.7 m/s
  mass density: 921.87 ± 1 kg/m3
313.15 K, x2 = 0.5715
  speed of sound: 1255.2 ± 1.7 m/s
  mass density: 929.96 ± 1 kg/m3
313.15 K, x2 = 0.6465
  speed of sound: 1270.7 ± 1.7 m/s
  mass density: 938.79 ± 1 kg/m3
313.15 K, x2 = 0.7147
  speed of sound: 1286.3 ± 1.7 m/s
  mass density: 947.33 ± 1 kg/m3
313.15 K, x2 = 0.7784
  speed of sound: 1302.3 ± 1.7 m/s
  mass density: 955.77 ± 1 kg/m3
313.15 K, x2 = 0.8558
  speed of sound: 1323.7 ± 1.7 m/s
  mass density: 966.7 ± 1 kg/m3
313.15 K, x2 = 0.9326
  speed of sound: 1346.9 ± 1.7 m/s
  mass density: 978.35 ± 1 kg/m3
318.15 K, x2 = 0
  speed of sound: 1145.7 ± 1.7 m/s
  mass density: 871.64 ± 1 kg/m3
318.15 K, x2 = 0.0721
  speed of sound: 1156.5 ± 1.6 m/s
  mass density: 877.48 ± 1 kg/m3
318.15 K, x2 = 0.1507
  speed of sound: 1168.2 ± 1.6 m/s
  mass density: 884.09 ± 1 kg/m3
318.15 K, x2 = 0.2142
  speed of sound: 1177.8 ± 1.6 m/s
  mass density: 889.64 ± 1 kg/m3
318.15 K, x2 = 0.2876
  speed of sound: 1189.1 ± 1.6 m/s
  mass density: 896.34 ± 1 kg/m3
318.15 K, x2 = 0.3511
  speed of sound: 1199.1 ± 1.6 m/s
  mass density: 902.4 ± 1 kg/m3
318.15 K, x2 = 0.4297
  speed of sound: 1212.1 ± 1.6 m/s
  mass density: 910.29 ± 1 kg/m3
318.15 K, x2 = 0.4985
  speed of sound: 1224.2 ± 1.6 m/s
  mass density: 917.58 ± 1 kg/m3
318.15 K, x2 = 0.5715
  speed of sound: 1238 ± 1.6 m/s
  mass density: 925.74 ± 1 kg/m3
318.15 K, x2 = 0.6465
  speed of sound: 1253.7 ± 1.6 m/s
  mass density: 934.65 ± 1 kg/m3
318.15 K, x2 = 0.7147
  speed of sound: 1269.6 ± 1.7 m/s
  mass density: 943.27 ± 1 kg/m3
318.15 K, x2 = 0.7784
  speed of sound: 1285.9 ± 1.7 m/s
  mass density: 951.79 ± 1 kg/m3
318.15 K, x2 = 0.8558
  speed of sound: 1307.8 ± 1.7 m/s
  mass density: 962.82 ± 1 kg/m3
318.15 K, x2 = 0.9326
  speed of sound: 1331.5 ± 1.7 m/s
  mass density: 974.58 ± 1 kg/m3

From the NIST ThermoML archive (doi:10.1016/j.jct.2018.12.031)
